In US20120231482A1, “METHOD, KIT OR DIAGNOSTIC FOR THE DETECTION OF REAGENTS WHICH INDUCE ALTERED CONTRACTILITY” (THE JOHNS HOPKINS UNIVERSITY, priority 2009, published 2012):
Marks after values point to notes of the source that are not given here.

Tests used:
myosin heavy chain β = biological target: T1, myosin heavy chain β (Rattus norvegicus, UniProt P02564); assay: Modified biotin switch assay, sites of HNO modification; type: biochemical
T1 construct: Rat myofibrillar preparations, as described in [7], were obtained from frozen ventricles (Pel Freez Biologicals); tissue Pel Freez Biologicals; host or cells: myofibrils from frozen rat ventricles
T1 sequence (P02564 whole entry): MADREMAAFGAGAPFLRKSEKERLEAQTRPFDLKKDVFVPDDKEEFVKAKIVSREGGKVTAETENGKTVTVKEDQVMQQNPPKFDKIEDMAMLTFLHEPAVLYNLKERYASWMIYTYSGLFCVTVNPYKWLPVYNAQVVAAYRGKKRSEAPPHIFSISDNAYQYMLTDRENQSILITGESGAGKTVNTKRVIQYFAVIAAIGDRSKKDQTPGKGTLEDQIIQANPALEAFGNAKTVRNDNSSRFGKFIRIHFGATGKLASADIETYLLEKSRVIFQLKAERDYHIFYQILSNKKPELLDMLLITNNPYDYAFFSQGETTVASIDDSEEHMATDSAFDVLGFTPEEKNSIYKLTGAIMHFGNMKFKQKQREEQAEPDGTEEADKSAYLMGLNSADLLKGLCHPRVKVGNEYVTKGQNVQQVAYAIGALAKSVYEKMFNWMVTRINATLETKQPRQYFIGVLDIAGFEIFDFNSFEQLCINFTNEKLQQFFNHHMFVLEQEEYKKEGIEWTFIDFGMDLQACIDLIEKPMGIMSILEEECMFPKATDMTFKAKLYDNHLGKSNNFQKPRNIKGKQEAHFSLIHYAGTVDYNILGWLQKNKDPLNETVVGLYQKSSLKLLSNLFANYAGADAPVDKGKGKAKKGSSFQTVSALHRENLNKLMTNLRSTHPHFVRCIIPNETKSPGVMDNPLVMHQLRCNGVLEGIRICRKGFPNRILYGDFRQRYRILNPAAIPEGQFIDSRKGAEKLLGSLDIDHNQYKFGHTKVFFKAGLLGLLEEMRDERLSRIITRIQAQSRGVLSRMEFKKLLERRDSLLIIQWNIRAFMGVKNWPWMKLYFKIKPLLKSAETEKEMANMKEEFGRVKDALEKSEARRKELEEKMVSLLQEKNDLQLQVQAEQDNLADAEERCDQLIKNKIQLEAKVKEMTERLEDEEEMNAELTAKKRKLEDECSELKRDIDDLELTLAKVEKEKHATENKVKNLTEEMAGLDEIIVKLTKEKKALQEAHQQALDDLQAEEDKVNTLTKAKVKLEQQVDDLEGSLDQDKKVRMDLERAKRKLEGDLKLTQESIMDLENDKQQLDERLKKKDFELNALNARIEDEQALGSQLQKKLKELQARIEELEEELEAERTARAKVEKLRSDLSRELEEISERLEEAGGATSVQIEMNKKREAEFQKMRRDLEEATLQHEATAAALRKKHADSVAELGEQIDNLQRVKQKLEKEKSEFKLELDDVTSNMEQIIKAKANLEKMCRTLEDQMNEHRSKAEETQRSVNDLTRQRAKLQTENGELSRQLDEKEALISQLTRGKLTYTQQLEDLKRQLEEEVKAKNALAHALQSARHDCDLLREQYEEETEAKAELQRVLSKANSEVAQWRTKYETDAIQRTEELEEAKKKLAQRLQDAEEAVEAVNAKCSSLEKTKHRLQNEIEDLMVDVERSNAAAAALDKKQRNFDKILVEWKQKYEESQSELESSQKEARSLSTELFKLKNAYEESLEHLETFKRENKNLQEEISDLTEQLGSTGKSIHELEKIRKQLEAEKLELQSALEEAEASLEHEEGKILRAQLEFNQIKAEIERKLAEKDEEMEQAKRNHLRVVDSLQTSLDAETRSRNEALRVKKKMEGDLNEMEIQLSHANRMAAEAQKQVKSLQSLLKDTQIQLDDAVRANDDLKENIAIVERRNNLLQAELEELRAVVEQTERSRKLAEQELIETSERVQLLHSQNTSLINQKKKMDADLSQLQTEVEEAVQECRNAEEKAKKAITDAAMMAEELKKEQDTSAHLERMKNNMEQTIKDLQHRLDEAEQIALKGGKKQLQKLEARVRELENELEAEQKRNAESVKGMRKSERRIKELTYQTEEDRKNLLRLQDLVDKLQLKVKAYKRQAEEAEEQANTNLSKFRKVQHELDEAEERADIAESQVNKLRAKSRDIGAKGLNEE
Description: (§1) Rat myofibrillar preparations, as described in [7], were obtained from frozen ventricles (Pel Freez Biologicals) minced in 20 volumes/tissue weight of 4° C. relax buffer (SRB (75 mM KCL, 10 mM imidazole pH 7.2, 2 mM MgCl2) plus 4 mM phosphocreatine, 1 mM ATP, 50 mM BDM, 1 mM benzamidine-HCL, 0.1 mM PMSF, 1 μg/ml leupeptin, 1 μg/ml pepstatin, 1% (v/v) Trixon X-100) and adjusted to 10 mM EDTA. Minced preparations were centrifuged for 8 min at 3000xg and the supernant was decanted. Resulting pellets were resuspended in 10 volumes of SRB plus 1% Triton X-100 and subjected to 6 strokes in a Duall tissue homogenizer and centrifuged as above. Pellets were gently resuspended and centrifuged as above twice more in SRB including 1% (v/v) Triton X-100, twice in SRB lacking Triton X-100 and once in K-60 buffer (60 mM KCL, 20 mM MOPS, 2 mM MgCl2 pH 7) before being resuspended in 5 volumes of K-60.
(§2) Detection of HNO modifications by Modified Biotin Switch. HNO modified thiols were detected using a modification to the standard biotin switch protocol. In brief, 100 μg of rat myofibrils/treatment were diluted to 0.5 μg/μl in HEN (250 mM HEPES pH 7.7, 1 mM EDTA and 0.1 mM neocuproine) including 0.1% (w/v) SDS and exposed to a treatment for 10 min at 37° C. which was subsequently removed by acetone precipitation. Remaining free thiols were blocked by addition of 300 μl of HEN including 2.5% (w/v) SDS and 20 mM N-ethylmaleimide (NEM), incubated for 20 min at 50° C. Excess NEM was removed by acetone precipitation. HNO and/or NO modified thiols were reduced using 5 mM DTT or 1 mM ascorbate in 150 μl of HEN including 1% (w/v) SDS and biotinylated with 0.8 mM Biotin-HPDP (Pierce) for one hour at room temperature. Excess biotin-HPDP was removed by acetone precipitation (2 volumes) and resultant pellets were carefully washed with an additional volume of acetone. Biotinylated proteins were resuspended in 1 ml of HEN including 0.1% (w/v) SDS and captured by incubation with 15 μl of washed, packed Ultralink Immobilized Streptavidin (Pierce) for one hour at room temperature. Beads were washed four times in 50 bead volumes of HEN (twice including 0.1% (w/v) SDS, twice including 600 mM NaCl) and twice with EB (20 mM HEPES pH 7.7, 100 mM NaCl, 1 mM EDTA). Captured proteins were eluted with 40 μl of EB containing 100 mM DTT, mixed with 15 μl of 4×LDS sample buffer, boiled, separated by SDS PAGE and silver stained. For MS studies, biotinylated proteins were digested overnight with trypsin (Promega) prior to capture and washed ten additional times with 5 mM ammonium bicarbonate/20% acetonitrile before being eluted in 100 μl of wash buffer including 100 mM DTT as described. Captured peptides were identified using a LTQ linear ion trap tandem mass spectrometer (ThermoFinnigan, Waltham Mass. USA) with data searched against the rat IPI primary sequence database using the sorcerer searching platform (sagen).
(§3) To investigate the modifications that underlie the difference seen in the functional effect of these two compounds we performed an analysis on the myofilament proteins, using a modified biotin-switch method, followed by mass spectrometry for identification (FIG. 3). Following treatment with HNO or control compounds, unmodified cysteines are blocked with NEM before treatment with a reducing agent and labeling the exposed cysteines with a biotin group (FIG. 3A). In this case, 5 mM DTT was used as the reducing agent because it was shown in the physiological studies to reverse the effect of the treatment. […] Tryptic or chymotryptic peptides containing the modified cysteine residues were captured and identified by LC/MS/MS. […] To parse the role of candidate sites of modification between these two effects a comparative proteomics experiment was designed where modifications specific to NCA treatment would be considered candidates for the Ca^2+ effect while sites identified in common between AS and NCA could be candidates for the force effect (FIG. 3C). […]

tropomyosin (α) = biological target: T2, tropomyosin (α) (Rattus norvegicus, UniProt P04692); assay: as above; type: biochemical
T2 construct: Rat myofibrillar preparations, as described in [7], were obtained from frozen ventricles (Pel Freez Biologicals); tissue Pel Freez Biologicals; host or cells: myofibrils from frozen rat ventricles
T2 sequence (P04692 whole entry): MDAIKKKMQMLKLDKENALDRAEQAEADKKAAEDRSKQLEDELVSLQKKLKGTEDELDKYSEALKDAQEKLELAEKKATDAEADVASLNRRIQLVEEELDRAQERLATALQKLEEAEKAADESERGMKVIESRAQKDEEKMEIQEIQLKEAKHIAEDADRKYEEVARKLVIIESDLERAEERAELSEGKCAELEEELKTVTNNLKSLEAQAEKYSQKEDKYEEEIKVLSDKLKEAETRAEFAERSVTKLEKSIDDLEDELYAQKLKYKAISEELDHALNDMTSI
Description: as §1, §2, §3

CC(=O)OC1(N=O)CCCCC1 [NCA, 1-nitrosocyclohexylacetate] was tested, and the “number of independent observations of peptide” value (myosin heavy chain β; Cys 947, tryptic peptide KLEDECELKR, 25 μM NCA or 500 μM AS) was 3, the “Position of modified Cys” value (myosin heavy chain β; myosin heavy chain (β), Table 2) was 947(β)* and the “number of independent observations of peptide” value (tropomyosin (α); Cys 190, tryptic peptide CLELEEELKTVTNNLK, 25 μM NCA or 500 μM AS) was 3^a. The “Position of modified Cys” value (tropomyosin (α); α-tropomyosin, Table 2) was 190.
